Laboratory results: patent US8871796B2, “Diaryl ether derivatives as notch sparing gamma secretase inhibitors” (Merck Sharp & Dohme Corp., priority 2009, dated 2014)
Where two headings read alike, the source gives them in different places.

Assay: APP processing: AlphaLisa assay of secreted Aβ40 and Aβ42 from SP4CT cells
Type: cell-based
Settings: Homo sapiens, SH-SY5Y cells expressing amyloid β protein (SP4CT cells)
Method: APP Processing (Assay Quantitates Secreted Aβ Analytes from Cell Lines):
The effect of compounds on the abundance of Aβ40 and Aβ42 peptides generated from SH-SY5Y cells expressing amyloid β protein (SP4CT cells) are determined by an AlphaLisa™ assay. Analogous to an ELISA assay, generation of […] AlphaLisa™ assay requires “donor” and “acceptor” beads to be brought in close proximity by specific antibody recognition of either Aβ40 or Aβ42 peptides. The assay is accomplished by removing media from compound-treated SP4CT cells to two different microplates, followed by the addition of donor beads conjugated with streptavidin binding a biotinylated anti-amyloid β monocolonal antibody (clone 4G8). Acceptor beads directly conjugated with anti-Aβ40 monoclonal antibody (G210) are added to one microplate and anti-Aβ42 monoclonal antibody (12F4) acceptor beads were added to the other. Abundance of Aβ40 and Aβ42 is directly proportional to the luminescent signal generated following excitation of donor beads by laser light.

[1] = read-out: IC50, inhibition of production of Aβ40 peptide
[2] = read-out: IC50, inhibition of production of Aβ42 peptide

Structure (SMILES) | IC50 [1] [nM] | IC50 [2] [nM]
CCn1nc(-c2cccc(C(C)(C)NS(=O)(=O)CC(F)(F)F)c2)cc1Oc1ccc(C(C)=O)cc1 [Example 69, N-(1-{3-[5-(4-acetylphenoxy)-1-ethyl-1H-pyrazol-3-yl]phenyl}-1-methylethyl)-2,2,2-trifluoroethanesulfonamide] | < 200 | < 200
CCn1nc(-c2cccc(C(C)(C)NS(=O)(=O)CC(F)(F)F)c2)cc1Oc1ccc(C(C)(C)O)cc1 [Example 70, N-[1-(3-{1-ethyl-5-[4-(1-hydroxy-1-methylethyl)phenoxy]-1H-pyrazol-3-yl}phenyl)-1-methylethyl]-2,2,2-trifluoroethanesulfonamide] | < 200 | < 200
CCn1nc(-c2cccc(C(C)(C)NS(=O)(=O)CC(F)(F)F)c2)cc1Oc1ccc(C(O)C(F)(F)F)cc1 (stereo not drawn) [Example 71, N-[1-(3-{1-ethyl-5-[4-(2,2,2-trifluoro-1-hydroxyethyl)phenoxy]-1H-pyrazol-3-yl}phenyl)-1-methylethyl]-2,2,2-trifluoroethanesulfonamide] | < 200 | < 200
CCn1nc(-c2cccc(C(C)(C)NS(=O)(=O)CC(F)(F)F)c2)cc1Oc1ccc(C(F)C(F)(F)F)cc1 (stereo not drawn) [Example 72, N-[1-(3-{1-ethyl-5-[4-(1,2,2,2-tetrafluoroethyl)phenoxy]-1H-pyrazol-3-yl}phenyl)-1-methylethyl]-2,2,2-trifluoroethanesulfonamide] | < 200 | < 200
CCn1nc(-c2cccc(C(C)(C)NS(=O)(=O)CC(F)(F)F)c2)cc1Oc1ccc(C(=O)C(F)(F)F)cc1 [Example 73, N-[1-(3-{1-ethyl-5-[4-(trifluoroacetyl)phenoxy]-1H-pyrazol-3-yl}phenyl)-1-methylethyl]-2,2,2-trifluoroethanesulfonamide] | < 200 | < 200
CCn1nc(-c2cccc(C(C)(C)NS(=O)(=O)CC(F)(F)F)c2)cc1Oc1ccc(C(=O)NCC2CCCO2)cc1 (stereo not drawn) [Example 74, 4-({1-ethyl-3-[3-(1-methyl-1-{[(2,2,2-trifluoroethyl)sulfonyl]amino}ethyl)phenyl]-1H-pyrazol-5-yl}oxy)-N-(tetrahydrofuran-2-ylmethyl)benzamide] | < 200 | < 200
CCn1nc(-c2cccc(C(C)(C)NS(=O)(=O)CC(F)(F)F)c2)cc1Oc1ccc(-c2nnc(C)o2)cc1 [Example 75, N-[1-(3-{1-ethyl-5-[4-(5-methyl-1,3,4-oxadiazol-2-yl)phenoxy]-1H-pyrazol-3-yl}phenyl)-1-methylethyl]-2,2,2-trifluoroethanesulfonamide] | < 200 | < 200
CCn1nc(-c2cccc(C(C)(C)NS(=O)(=O)CC(F)(F)F)c2)cc1Oc1ccc(-c2cnco2)cc1 [Example 76, N-[1-(3-{1-ethyl-5-[4-(1,3-oxazol-5-yl)phenoxy]-1H-pyrazol-3-yl}phenyl)-1-methylethyl]-2,2,2-trifluoroethanesulfonamide] | < 200 | < 200
CCn1nc(-c2cccc(C(C)(C)NS(=O)(=O)CC(F)(F)F)c2)cc1Oc1ccc(CNCc2ccccn2)cc1 [Example 77, N-(1-{3-[1-ethyl-5-(4-{[(pyridin-2-ylmethyl)amino]methyl}phenoxy)-1H-pyrazol-3-yl]phenyl}-1-methylethyl)-2,2,2-trifluoroethanesulfonamide] | < 200 | < 200
CCn1nc(-c2cccc(C(C)(C)NS(=O)(=O)CC(F)(F)F)c2)cc1Oc1ccc(CN2CCOCC2)cc1 [Example 78, N-[1-(3-{1-ethyl-5-[4-(morpholin-4-ylmethyl)phenoxy]-1H-pyrazol-3-yl}phenyl)-1-methylethyl]-2,2,2-trifluoroethanesulfonamide] | < 200 | < 200
CCn1nc(-c2cccc(C(C)(C)NS(=O)(=O)CC(F)(F)F)c2)cc1Oc1ccc(CNCc2ccccc2)cc1 [Example 79, N-{1-[3-(5-{4-[(benzylamino)methyl]phenoxy}-1-ethyl-1H-pyrazol-3-yl)phenyl]-1-methylethyl}-2,2,2-trifluoroethanesulfonamide] | < 200 | < 200

Now from value to compound:

IC50 [1] [nM] | IC50 [2] [nM] | Structure (SMILES)
< 200 | < 200 | CCn1nc(-c2cncc(C3(NS(=O)(=O)CC(F)(F)F)CC3)c2)cc1Oc1ccc(C(F)(F)F)cc1 [Example 52, N-[1-(5-{1-ethyl-5-[4-(trifluoromethyl)phenoxy]-1H-pyrazol-3-yl}pyridin-3-yl)cyclopropyl]-2,2,2-trifluoroethanesulfonamide]
< 200 | < 200 | CCn1nc(Oc2ccc(F)cc2)cc1-c1cccc(C(C)(C)NS(=O)(=O)NC2CCC2)c1 [Example 54, N-cyclobutyl-N′-(1-{3-[1-ethyl-3-(4-fluorophenoxy)-1H-pyrazol-5-yl]phenyl}-1-methylethyl)sulfamide]
< 200 | < 200 | CCn1nc(Oc2ccc(F)cc2)cc1-c1cccc(C(C)(C)NS(=O)(=O)NCC(F)(F)F)c1 [Example 55, N-(1-{3-[1-ethyl-3-(4-fluorophenoxy)-1H-pyrazol-5-yl]phenyl}-1-methylethyl)-N'-(2,2,2-trifluoroethyl)sulfamide]
< 200 | < 200 | CCn1nc(-c2cccc(C(C)(C)NS(=O)(=O)CC(F)(F)F)c2)cc1Oc1ccc(F)cc1 [Example 56, N-(1-{3-[1-ethyl-5-(4-fluorophenoxy)-1H-pyrazol-3-yl]phenyl}-1-methylethyl)-2,2,2-trifluoroethanesulfonamide]
< 200 | < 200 | CCn1nc(-c2cccc(C(C)(C)NS(=O)(=O)CC(F)(F)F)c2)cc1Oc1ccccc1 [Example 57, N-{1-[3-(1-ethyl-5-phenoxy-1H-pyrazol-3-yl)phenyl]-1-methylethyl}-2,2,2-trifluoroethanesulfonamide]
< 200 | < 200 | CCn1nc(-c2cccc(C(C)(C)NS(=O)(=O)CC(F)(F)F)c2)cc1Oc1ccc(C(C)C)cc1 [Example 58, N-(1-{3-[1-ethyl-5-(4-isopropylphenoxy)-1H-pyrazol-3-yl]phenyl}-1-methylethyl)-2,2,2-trifluoroethanesulfonamide]
< 200 | < 200 | CCn1nc(-c2cccc(C(C)(C)NS(=O)(=O)CC(F)(F)F)c2)cc1Oc1ccc(C)cc1 [Example 59, N-(1-{3-[1-ethyl-5-(4-methylphenoxy)-1H-pyrazol-3-yl]phenyl}-1-methylethyl)-2,2,2-trifluoroethanesulfonamide]
< 200 | < 200 | CCn1nc(-c2cccc(C(C)(C)NS(=O)(=O)CC(F)(F)F)c2)cc1Oc1ccc(C(C)(C)C)cc1 [Example 60, N-(1-{3-[5-(4-tert-butylphenoxy)-1-ethyl-1H-pyrazol-3-yl]phenyl}-1-methylethyl)-2,2,2-trifluoroethanesulfonamide]
< 200 | < 200 | CCn1nc(-c2cccc(C(C)(C)NS(=O)(=O)CC(F)(F)F)c2)cc1Oc1ccc(C=O)cc1 [Example 61, N-(1-{3-[1-ethyl-5-(4-formylphenoxy)-1H-pyrazol-3-yl]phenyl}-1-methylethyl)-2,2,2-trifluoroethanesulfonamide]
< 200 | < 200 | CCn1nc(-c2cccc(C(C)(C)NS(=O)(=O)CC(F)(F)F)c2)cc1Oc1ccc(CO)cc1 [Example 62, N-[1-(3-{1-ethyl-5-[4-(hydroxymethyl)phenoxy]-1H-pyrazol-3-yl}phenyl)-1-methylethyl]-2,2,2-trifluoroethanesulfonamide]
< 200 | < 200 | CCn1nc(-c2cccc(C(C)(C)NS(=O)(=O)CC(F)(F)F)c2)cc1Oc1ccc(CF)cc1 [Example 63, N-[1-(3-{1-ethyl-5-[4-(fluoromethyl)phenoxy]-1H-pyrazol-3-yl}phenyl)-1-methylethyl]-2,2,2-trifluoroethanesulfonamide]
< 200 | < 200 | CCn1nc(-c2cccc(C(C)(C)NS(=O)(=O)CC(F)(F)F)c2)cc1Oc1ccc(C(F)F)cc1 [Example 64, N-[1-(3-{5-[4-(difluoromethyl)phenoxy]-1-ethyl-1H-pyrazol-3-yl}phenyl)-1-methylethyl]-2,2,2-trifluoroethanesulfonamide]
< 200 | < 200 | CCn1nc(-c2cccc(C(C)(C)NS(=O)(=O)CC(F)(F)F)c2)cc1Oc1ccc(C(C)O)cc1 (stereo not drawn) [Example 65, N-[1-(3-{1-ethyl-5-[4-(1-hydroxyethyl)phenoxy]-1H-pyrazol-3-yl}phenyl)-1-methylethyl]-2,2,2-trifluoroethanesulfonamide]
< 200 | < 200 | CCn1nc(-c2cccc(C(C)(C)NS(=O)(=O)CC(F)(F)F)c2)cc1Oc1ccc(C(O)C(C)C)cc1 (stereo not drawn) [Example 66, N-[1-(3-{1-ethyl-5-[4-(1-hydroxy-2-methylpropyl)phenoxy]-1H-pyrazol-3-yl}phenyl)-1-methylethyl]-2,2,2-trifluoroethanesulfonamide]
< 200 | < 200 | CCC(O)c1ccc(Oc2cc(-c3cccc(C(C)(C)NS(=O)(=O)CC(F)(F)F)c3)nn2CC)cc1 (stereo not drawn) [Example 67, N-[1-(3-{1-ethyl-5-[4-(1-hydroxypropyl)phenoxy]-1H-pyrazol-3-yl}phenyl)-1-methylethyl]-2,2,2-trifluoroethanesulfonamide]
< 200 | < 200 | CCn1nc(-c2cccc(C(C)(C)NS(=O)(=O)CC(F)(F)F)c2)cc1Oc1ccc(C(C)F)cc1 (stereo not drawn) [Example 68, N-[1-(3-{1-ethyl-5-[4-(1-fluoroethyl)phenoxy]-1H-pyrazol-3-yl}phenyl)-1-methylethyl]-2,2,2-trifluoroethanesulfonamide]
